# Details: human gut metagenome, 24 h, 2 µM
# Note: call rule not given here.
row,Bacterial Biotransformation,Structure (SMILES)
1,Compound metabolized,CCCCC1=NC2(CCCC2)C(=O)N1Cc1ccc(-c2ccccc2-c2nnn[nH]2)cc1 [IRBESARTAN]
2,Compound metabolized,CCCc1nn(C)c2c(=O)[nH]c(-c3cc(S(=O)(=O)N4CCN(C)CC4)ccc3OCC)nc12.O=C(O)CC(O)(CC(=O)O)C(=O)O [SILDENAFIL CITRATE]

# Assay: (§1) The drug is tested on Z-001 corresponding to mouse gut metagenome with ENA study accession number: PRJEB37062 and ENA sample accession number: ERS12561801 for biotransformation under anaerobic condition. The drug concentrations were measured over 9 timepoints collected between 0 and 24 hours of incubation by liquid-chromatography-coupled mass spectrometry (LC–MS)
# Details: 2 µM
row,Bacterial Biotransformation,Structure (SMILES)
1,Compound metabolized,CCCCC1=NC2(CCCC2)C(=O)N1Cc1ccc(-c2ccccc2-c2nnn[nH]2)cc1 [IRBESARTAN]
2,Compound NOT metabolized,CCCc1nn(C)c2c(=O)[nH]c(-c3cc(S(=O)(=O)N4CCN(C)CC4)ccc3OCC)nc12.O=C(O)CC(O)(CC(=O)O)C(=O)O [SILDENAFIL CITRATE]

# Assay: as §1, with “Z-009” for “Z-001”, “pig” for “mouse”, “ERS12561809” for “ERS12561801”
# Details: 2 µM
row,Bacterial Biotransformation,Structure (SMILES)
1,Compound metabolized,CCCCC1=NC2(CCCC2)C(=O)N1Cc1ccc(-c2ccccc2-c2nnn[nH]2)cc1 [IRBESARTAN]
2,Compound NOT metabolized,CCCc1nn(C)c2c(=O)[nH]c(-c3cc(S(=O)(=O)N4CCN(C)CC4)ccc3OCC)nc12.O=C(O)CC(O)(CC(=O)O)C(=O)O [SILDENAFIL CITRATE]

# Details: human gut metagenome, 24 h, 2 µM
# Remark: another data set of the same source
row,Bacterial Biotransformation,Structure (SMILES)
1,Compound metabolized,CCCCC1=NC2(CCCC2)C(=O)N1Cc1ccc(-c2ccccc2-c2nnn[nH]2)cc1 [IRBESARTAN]
2,Compound metabolized,CCCc1nn(C)c2c(=O)[nH]c(-c3cc(S(=O)(=O)N4CCN(C)CC4)ccc3OCC)nc12.O=C(O)CC(O)(CC(=O)O)C(=O)O [SILDENAFIL CITRATE]

# Assay: as §1, with “WLS-006” for “Z-001”, “human” for “mouse”, “ERS12561741” for “ERS12561801”
# Details: 2 µM
row,Bacterial Biotransformation,Structure (SMILES)
1,Compound metabolized,CCCCC1=NC2(CCCC2)C(=O)N1Cc1ccc(-c2ccccc2-c2nnn[nH]2)cc1 [IRBESARTAN]
2,Compound metabolized,CCCc1nn(C)c2c(=O)[nH]c(-c3cc(S(=O)(=O)N4CCN(C)CC4)ccc3OCC)nc12.O=C(O)CC(O)(CC(=O)O)C(=O)O [SILDENAFIL CITRATE]

# Assay: as §1, with “Z-020” for “Z-001”, “rabbit” for “mouse”, “ERS12561819” for “ERS12561801”
# Details: 2 µM
row,Bacterial Biotransformation,Structure (SMILES)
1,Compound metabolized,CCCCC1=NC2(CCCC2)C(=O)N1Cc1ccc(-c2ccccc2-c2nnn[nH]2)cc1 [IRBESARTAN]
2,Compound NOT metabolized,CCCc1nn(C)c2c(=O)[nH]c(-c3cc(S(=O)(=O)N4CCN(C)CC4)ccc3OCC)nc12.O=C(O)CC(O)(CC(=O)O)C(=O)O [SILDENAFIL CITRATE]

# Assay: as §1, with “Z-013” for “Z-001”, “rabbit” for “mouse”, “ERS12561813” for “ERS12561801”
# Details: 2 µM
row,Bacterial Biotransformation,Structure (SMILES)
1,Compound NOT metabolized,CCCCC1=NC2(CCCC2)C(=O)N1Cc1ccc(-c2ccccc2-c2nnn[nH]2)cc1 [IRBESARTAN]
2,Compound NOT metabolized,CCCc1nn(C)c2c(=O)[nH]c(-c3cc(S(=O)(=O)N4CCN(C)CC4)ccc3OCC)nc12.O=C(O)CC(O)(CC(=O)O)C(=O)O [SILDENAFIL CITRATE]

# Details: human gut metagenome, 24 h, 2 µM
# Remark: another data set of the same source
row,Bacterial Biotransformation,Structure (SMILES)
1,Compound NOT metabolized,CCCCC1=NC2(CCCC2)C(=O)N1Cc1ccc(-c2ccccc2-c2nnn[nH]2)cc1 [IRBESARTAN]
2,Compound NOT metabolized,CCCc1nn(C)c2c(=O)[nH]c(-c3cc(S(=O)(=O)N4CCN(C)CC4)ccc3OCC)nc12.O=C(O)CC(O)(CC(=O)O)C(=O)O [SILDENAFIL CITRATE]

# Details: human gut metagenome, 24 h, 2 µM
# Remark: another data set of the same source
row,Bacterial Biotransformation,Structure (SMILES)
1,Compound metabolized,CCCCC1=NC2(CCCC2)C(=O)N1Cc1ccc(-c2ccccc2-c2nnn[nH]2)cc1 [IRBESARTAN]
2,Compound NOT metabolized,CCCc1nn(C)c2c(=O)[nH]c(-c3cc(S(=O)(=O)N4CCN(C)CC4)ccc3OCC)nc12.O=C(O)CC(O)(CC(=O)O)C(=O)O [SILDENAFIL CITRATE]

# Details: human gut metagenome, 24 h, 2 µM
# Remark: another data set of the same source
row,Bacterial Biotransformation,Structure (SMILES)
1,Compound metabolized,CCCCC1=NC2(CCCC2)C(=O)N1Cc1ccc(-c2ccccc2-c2nnn[nH]2)cc1 [IRBESARTAN]
2,Compound NOT metabolized,CCCc1nn(C)c2c(=O)[nH]c(-c3cc(S(=O)(=O)N4CCN(C)CC4)ccc3OCC)nc12.O=C(O)CC(O)(CC(=O)O)C(=O)O [SILDENAFIL CITRATE]

# Details: human gut metagenome, 24 h, 2 µM
# Remark: another data set of the same source
row,Bacterial Biotransformation,Structure (SMILES)
1,Compound metabolized,CCCCC1=NC2(CCCC2)C(=O)N1Cc1ccc(-c2ccccc2-c2nnn[nH]2)cc1 [IRBESARTAN]
2,Compound NOT metabolized,CCCc1nn(C)c2c(=O)[nH]c(-c3cc(S(=O)(=O)N4CCN(C)CC4)ccc3OCC)nc12.O=C(O)CC(O)(CC(=O)O)C(=O)O [SILDENAFIL CITRATE]

# Assay: as §1, with “Z-028” for “Z-001”, “ERS12561827” for “ERS12561801”
# Details: 2 µM
row,Bacterial Biotransformation,Structure (SMILES)
1,Compound NOT metabolized,CCCCC1=NC2(CCCC2)C(=O)N1Cc1ccc(-c2ccccc2-c2nnn[nH]2)cc1 [IRBESARTAN]
2,Compound NOT metabolized,CCCc1nn(C)c2c(=O)[nH]c(-c3cc(S(=O)(=O)N4CCN(C)CC4)ccc3OCC)nc12.O=C(O)CC(O)(CC(=O)O)C(=O)O [SILDENAFIL CITRATE]

# Details: human gut metagenome, 24 h, 2 µM
# Remark: another data set of the same source
row,Bacterial Biotransformation,Structure (SMILES)
1,Compound metabolized,CCCCC1=NC2(CCCC2)C(=O)N1Cc1ccc(-c2ccccc2-c2nnn[nH]2)cc1 [IRBESARTAN]
2,Compound NOT metabolized,CCCc1nn(C)c2c(=O)[nH]c(-c3cc(S(=O)(=O)N4CCN(C)CC4)ccc3OCC)nc12.O=C(O)CC(O)(CC(=O)O)C(=O)O [SILDENAFIL CITRATE]

# Assay: as §1, with “Z-024” for “Z-001”, “pig” for “mouse”, “ERS12561823” for “ERS12561801”
# Details: 2 µM
row,Bacterial Biotransformation,Structure (SMILES)
1,Compound metabolized,CCCCC1=NC2(CCCC2)C(=O)N1Cc1ccc(-c2ccccc2-c2nnn[nH]2)cc1 [IRBESARTAN]
2,Compound metabolized,CCCc1nn(C)c2c(=O)[nH]c(-c3cc(S(=O)(=O)N4CCN(C)CC4)ccc3OCC)nc12.O=C(O)CC(O)(CC(=O)O)C(=O)O [SILDENAFIL CITRATE]

# Details: human gut metagenome, 24 h, 2 µM
# Remark: another data set of the same source
row,Bacterial Biotransformation,Structure (SMILES)
1,Compound metabolized,CCCCC1=NC2(CCCC2)C(=O)N1Cc1ccc(-c2ccccc2-c2nnn[nH]2)cc1 [IRBESARTAN]
2,Compound metabolized,CCCc1nn(C)c2c(=O)[nH]c(-c3cc(S(=O)(=O)N4CCN(C)CC4)ccc3OCC)nc12.O=C(O)CC(O)(CC(=O)O)C(=O)O [SILDENAFIL CITRATE]

# Assay: as §1, with “WLS-082” for “Z-001”, “human” for “mouse”, “ERS12561751” for “ERS12561801”
# Details: 2 µM
row,Bacterial Biotransformation,Structure (SMILES)
1,Compound metabolized,CCCCC1=NC2(CCCC2)C(=O)N1Cc1ccc(-c2ccccc2-c2nnn[nH]2)cc1 [IRBESARTAN]
2,Compound NOT metabolized,CCCc1nn(C)c2c(=O)[nH]c(-c3cc(S(=O)(=O)N4CCN(C)CC4)ccc3OCC)nc12.O=C(O)CC(O)(CC(=O)O)C(=O)O [SILDENAFIL CITRATE]

# Assay: as §1, with “Z-007” for “Z-001”, “rat” for “mouse”, “ERS12561807” for “ERS12561801”
# Details: 2 µM
row,Bacterial Biotransformation,Structure (SMILES)
1,Compound NOT metabolized,CCCCC1=NC2(CCCC2)C(=O)N1Cc1ccc(-c2ccccc2-c2nnn[nH]2)cc1 [IRBESARTAN]
2,Compound NOT metabolized,CCCc1nn(C)c2c(=O)[nH]c(-c3cc(S(=O)(=O)N4CCN(C)CC4)ccc3OCC)nc12.O=C(O)CC(O)(CC(=O)O)C(=O)O [SILDENAFIL CITRATE]

# Assay: as §1, with “Z-027” for “Z-001”, “to” for “to mouse gut”, “ERS12561826” for “ERS12561801”
# Details: 2 µM
row,Bacterial Biotransformation,Structure (SMILES)
1,Compound NOT metabolized,CCCCC1=NC2(CCCC2)C(=O)N1Cc1ccc(-c2ccccc2-c2nnn[nH]2)cc1 [IRBESARTAN]
2,Compound NOT metabolized,CCCc1nn(C)c2c(=O)[nH]c(-c3cc(S(=O)(=O)N4CCN(C)CC4)ccc3OCC)nc12.O=C(O)CC(O)(CC(=O)O)C(=O)O [SILDENAFIL CITRATE]

# Details: human gut metagenome, 24 h, 2 µM
# Remark: another data set of the same source
row,Bacterial Biotransformation,Structure (SMILES)
1,Compound metabolized,CCCCC1=NC2(CCCC2)C(=O)N1Cc1ccc(-c2ccccc2-c2nnn[nH]2)cc1 [IRBESARTAN]
2,Compound NOT metabolized,CCCc1nn(C)c2c(=O)[nH]c(-c3cc(S(=O)(=O)N4CCN(C)CC4)ccc3OCC)nc12.O=C(O)CC(O)(CC(=O)O)C(=O)O [SILDENAFIL CITRATE]

# Details: human gut metagenome, 24 h, 2 µM
# Remark: another data set of the same source
row,Bacterial Biotransformation,Structure (SMILES)
1,Compound metabolized,CCCCC1=NC2(CCCC2)C(=O)N1Cc1ccc(-c2ccccc2-c2nnn[nH]2)cc1 [IRBESARTAN]
2,Compound metabolized,CCCc1nn(C)c2c(=O)[nH]c(-c3cc(S(=O)(=O)N4CCN(C)CC4)ccc3OCC)nc12.O=C(O)CC(O)(CC(=O)O)C(=O)O [SILDENAFIL CITRATE]
